In patent publication US11512090B2, “Muscarinic acetylcholine M1 receptor antagonists” (PIPELINE THERAPEUTICS, INC., priority 2018, dated 2022):
Read-outs that look alike come from different tables or passages of the source.

How the values were obtained:
Format in all cases: cell-based
human M1 receptor = biological target: T1, human M1 receptor (Homo sapiens, UniProt P11229); test: In vitro functional assay of muscarinic acetylcholine receptor activity (aequorin calcium flux, antagonist mode vs EC80 acetylcholine), M1
T1 sequence (P11229 1-460): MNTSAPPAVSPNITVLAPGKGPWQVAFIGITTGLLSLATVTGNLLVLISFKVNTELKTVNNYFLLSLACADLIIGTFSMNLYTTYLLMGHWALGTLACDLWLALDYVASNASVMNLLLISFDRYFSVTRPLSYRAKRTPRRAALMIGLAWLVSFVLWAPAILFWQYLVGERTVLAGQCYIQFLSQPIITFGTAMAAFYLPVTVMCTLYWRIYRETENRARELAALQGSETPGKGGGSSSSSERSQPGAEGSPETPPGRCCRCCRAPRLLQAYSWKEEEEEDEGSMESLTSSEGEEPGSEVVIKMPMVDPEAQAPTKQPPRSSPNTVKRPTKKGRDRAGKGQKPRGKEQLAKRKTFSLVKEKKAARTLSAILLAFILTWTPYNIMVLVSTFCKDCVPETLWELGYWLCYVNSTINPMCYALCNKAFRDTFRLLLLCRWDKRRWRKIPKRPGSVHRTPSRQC
Procedure: (§1) CHO-K1 cells stably expressing human M1 receptor with Aequorin (Perkin Elmer) were grown in F12 media, 10% FBS with 0.4 mg/mL geneticin and […]. Cells were grown to confluence and frozen down to be assayed at a later date. On the day of the experiment cells were thawed in a 37° C. water bath, resuspended in DMEM/HAM's F12 with HEPES (Invitrogen)+0.1% protease-free BSA (assay buffer), and spun down to remove freezing media. After centrifugation, supernatant was removed and 12 mL of assay buffer was added. Coelenterazine h (Promega) was added to the cells at a final concentration of 5 uM and incubated for 4 hours at room temperature in the dark. Compound master plate-96 deep well (Corning) were formatted in a 8-point DRC in assay buffer with 0.2% DMSO at a starting concentration of 60 uM (2×). After 4 hours of incubation, cells were plated at a concentration of 5×10^5 cells/well in 96 well white-walled, tissue culture-treated, clear-bottom plates (VWR). Compounds were added to the daughter plate, and cells plus compound were incubated at room temperature for 30 minutes in the dark.
(§2) Calcium flux was measured using the FlexStation 3 (Molecular Devices). To measure the antagonist dose-response, the EC80 of Acetylcholine was injected to the daughter plate using the automated compound transfer function of the Flex Station, and the increase in luminescence was measured over time. Antagonist activity was analyzed as a concentration dependent decrease in the EC80 acetylcholine response. Dose response curves were generated using Prism (GraphPad Software). The IC50 of the compounds was calculated from the dose response curve.

M2 = biological target: T2, M2 (Homo sapiens, UniProt P08172); test: In vitro functional assay of muscarinic acetylcholine receptor activity, M2
T2 sequence (P08172 1-466): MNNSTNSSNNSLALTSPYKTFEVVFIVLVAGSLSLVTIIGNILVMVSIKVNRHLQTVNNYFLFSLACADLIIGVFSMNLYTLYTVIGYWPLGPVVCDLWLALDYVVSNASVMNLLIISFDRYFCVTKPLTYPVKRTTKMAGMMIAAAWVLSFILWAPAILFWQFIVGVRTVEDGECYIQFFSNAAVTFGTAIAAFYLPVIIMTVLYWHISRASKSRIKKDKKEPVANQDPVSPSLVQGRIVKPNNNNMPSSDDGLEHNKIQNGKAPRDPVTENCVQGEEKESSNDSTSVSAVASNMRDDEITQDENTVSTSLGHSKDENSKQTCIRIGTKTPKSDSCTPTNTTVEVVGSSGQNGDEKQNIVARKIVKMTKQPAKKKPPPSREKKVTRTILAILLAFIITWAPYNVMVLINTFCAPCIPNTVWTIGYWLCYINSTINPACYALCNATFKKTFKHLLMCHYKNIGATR
Procedure: [The procedure below names another target; the source lists this target under the same test.] as §1, §2

M3 = M3 (Homo sapiens, UniProt P20309); test: In vitro functional assay of muscarinic acetylcholine receptor activity, M3; settings: antagonist IC50 at M3; read-out: M3 IC50
Procedure: [The procedure below names another target; the source lists this target under the same test.] as §1, §2

[1] = antagonist IC50 at M2, read-out: M2 IC50
[2] = CHO-K1 cells stably expressing human M1 receptor with Aequorin, decrease in EC80 acetylcholine response, read-out: M1 IC50

M3, sequence (P20309 whole entry): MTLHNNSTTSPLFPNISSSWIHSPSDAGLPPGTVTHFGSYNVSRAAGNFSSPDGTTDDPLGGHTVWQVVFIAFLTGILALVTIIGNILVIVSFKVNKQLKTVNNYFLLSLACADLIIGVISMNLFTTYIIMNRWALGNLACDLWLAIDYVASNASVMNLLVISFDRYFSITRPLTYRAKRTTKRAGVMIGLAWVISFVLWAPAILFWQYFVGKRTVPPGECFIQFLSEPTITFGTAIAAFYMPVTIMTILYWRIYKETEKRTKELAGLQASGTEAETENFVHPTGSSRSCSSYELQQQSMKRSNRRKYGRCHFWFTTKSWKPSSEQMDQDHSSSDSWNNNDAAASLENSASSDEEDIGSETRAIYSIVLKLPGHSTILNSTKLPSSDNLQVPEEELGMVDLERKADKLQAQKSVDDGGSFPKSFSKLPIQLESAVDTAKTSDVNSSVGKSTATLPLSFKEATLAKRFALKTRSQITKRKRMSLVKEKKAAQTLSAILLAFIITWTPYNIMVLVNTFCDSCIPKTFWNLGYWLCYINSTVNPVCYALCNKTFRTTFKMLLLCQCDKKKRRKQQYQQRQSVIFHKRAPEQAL

Cc1ccc2ncccc2c1COCCC(=O)N1CC2CCC(C1)N2c1ccc(C#N)cn1 [Example 177, 6-(3-{3-[(6-methylquinolin-5-yl)methoxy]propanoyl}-3,8-diazabicyclo[3.2.1]octan-8-yl)pyridine-3-carbonitrile]
IC50 (human M1 receptor): < 100 nM
IC50 (M2; [1]): 1000 to 10000 nM
IC50 (M3): 1000 to 10000 nM

Cc1nc2cccc(CNCCC(=O)N3CC4CCC(C3)N4c3ccc(C#N)cn3)n2n1 [Example 168, 6-(3-{3-[({2-methyl-[1,2,4]triazolo[1,5-a]pyridin-5-yl}methyl)amino]propanoyl}-3,8-diazabicyclo[3.2.1]octan-8-yl)pyridine-3-carbonitrile]
IC50 (human M1 receptor): 100 to 1000 nM
IC50 (M2; [1]): 1000 to 10000 nM
IC50 (M3): > 10000 nM

N#Cc1ccc(N2[C@@H]3CC[C@H]2CN(C(=O)CCOCc2cccc4ncccc24)C3)nc1 [Example 40, 6-((1R, 5S)-3-(3-(quinolin-5-ylmethoxy)propanoyl)-3,8-diazabicyclo[3.2.1]octan-8-yl)nicotinonitrile]
IC50 (human M1 receptor): < 100 nM
IC50 (M2): 100 to 1000 nM
IC50 (M3): > 10000 nM

O=C(CCCc1cccc2ncccc12)N1C[C@H]2C[C@@H]1CN2c1ccc(F)cn1 (racemic) [Example 54, rac-1-((1R,4R)-5-(5-fluoropyridin-2-yl)-2,5-diazabicyclo[2.2.1]heptan-2-yl)-4-(quinolin-5-yl)butan-1-one]
IC50 (human M1 receptor; [2]): 100 to 1000 nM
IC50 (M2; [1]): 1000 to 10000 nM
IC50 (M3): > 10000 nM

CC1CN(C(=O)CCCc2cccc3ncccc23)CCN1c1ccc(F)cn1 (centres unmarked) [Example 61, 1-(4-(5-fluoropyridin-2-yl)-3-methylpiperazin-1-yl)-4-(quinolin-5-yl)butan-1-one]
IC50 (M2; [1]): 1000 to 10000 nM
IC50 (M3): 1000 to 10000 nM

N#Cc1ccc(N2C3CCC2CN(C(=O)CCCc2cccn4ncnc24)C3)nc1 [Example 198, 6-[3-(4-{[1,2,4]triazolo[1,5-a]pyridin-8-yl}butanoyl)-3,8-diazabicyclo[3.2.1]octan-8-yl]pyridine-3-carbonitrile]
IC50 (human M1 receptor): < 100 nM

CC1CN(c2ccc(C#N)cn2)CC(C)N1C(=O)CCS(=O)(=O)c1cccc2ncsc12 (centres unmarked) [Example 134, 6-{4-[3-(1,3-benzothiazole-7-sulfonyl)propanoyl]-3,5-dimethylpiperazin-1-yl}pyridine-3-carbonitrile]
IC50 (M2; [1]): > 10000 nM
IC50 (M3): > 10000 nM

N#Cc1ccc(N2C3CCC2CN(C(=O)CCN(Cc2cccc4ncnn24)C2CCC2)C3)nc1 [Example 191, 6-(3-{3-[cyclobutyl({[1,2,4]triazolo[1,5-a]pyridin-5-yl}methyl)amino]propanoyl}-3,8-diazabicyclo[3.2.1]octan-8-yl)pyridine-3-carbonitrile]
IC50 (human M1 receptor; [2]): 1000 to 10000 nM

Cc1cc(F)cnc1N1CCN(C(=O)CCCc2cccc3ncoc23)[C@@H](C)C1 [Example 83, (S)-4-(benzo[d]oxazol-7-yl)-1-(4-(5-fluoro-3-methylpyridin-2-yl)-2-methylpiperazin-1-yl)butan-1-one]
IC50 (M2; [1]): 1000 to 10000 nM
IC50 (M3): 1000 to 10000 nM

N#Cc1cc(N2CCN(C(=O)CCS(=O)(=O)c3cccc4ncsc34)CC2)ccn1 [Example 100, 4-(4-(3-(benzo[d]thiazol-7-ylsulfonyl)propanoyl)piperazin-1-yl)picolinonitrile]
IC50 (M2; [1]): > 10000 nM
IC50 (M3): 1000 to 10000 nM

N#Cc1ccc(N2C3CCC2CN(C(=O)CCCc2cccc4ncnn24)C3)nc1 [Example 199, 6-[3-(4-{[1,2,4]triazolo[1,5-a]pyridin-5-yl}butanoyl)-3,8-diazabicyclo[3.2.1]octan-8-yl]pyridine-3-carbonitrile]
IC50 (human M1 receptor): < 100 nM

O=C(CCNCc1cccc2ncsc12)N1CCN(c2ccc(C(F)(F)F)cn2)CC1 [Example 119, 3-{[(1,3-benzothiazol-7-yl)methyl)amino}-1-{4-[5-(trifluoromethyl)pyridin-2-yl]piperazin-1-yl}propan-1-one]
IC50 (human M1 receptor; [2]): 1000 to 10000 nM
IC50 (M3): > 10000 nM

CC1CN(c2ccc(F)cn2)CCN1C(=O)CCCc1cccc2ncccc12 (centres unmarked) [Example 58, 1-(4-(5-fluoropyridin-2-yl)-2-methylpiperazin-1-yl)-4-(quinolin-5-yl)butan-1-one]
IC50 (M2; [1]): 1000 to 10000 nM
IC50 (M3): 1000 to 10000 nM

Cc1ccc(N2C3CCC2CN(C(=O)CCOCc2cccn4ncnc24)C3)nn1 [Example 189, 1-[8-(6-methylpyridazin-3-yl)-3,8-diazabicyclo[3.2.1]octan-3-yl]-3-({[1,2,4]triazolo[1,5-a]pyridin-8-yl}methoxy)propan-1-one]
IC50 (human M1 receptor): 100 to 1000 nM

N#Cc1ccc(N2C3CCC2CN(C(=O)CCNCc2c(F)ccc4ncnn24)C3)nc1 [Example 41, 6-(3-{3-[({6-fluoro-[1,2,4]triazolo[1,5-a]pyridin-5-yl}methyl)amino]propanoyl}-3,8-diazabicyclo[3.2.1]octan-8-yl)pyridine-3-carbonitrile]
IC50 (human M1 receptor): < 100 nM

Cc1cc(F)cnc1N1CCN(C(=O)CCCc2cccc3ncccc23)CC1C (centres unmarked) [Example 62, 1-(4-(5-fluoro-3-methylpyridin-2-yl)-3-methylpiperazin-1-yl)-4-(quinolin-5-yl)butan-1-one]
IC50 (M2; [1]): 100 to 1000 nM
IC50 (M3): 1000 to 10000 nM

O=Cc1ccc(N2C3CCC2CN(C(=O)CCOCc2cccn4ncnc24)C3)nc1 [Example 190, 6-{3-[3-({[1,2,4]triazolo[1,5-a]pyridin-8-yl}methoxy)propanoyl]-3,8-diazabicyclo[3.2.1]octan-8-yl}pyridine-3-carbaldehyde]
IC50 (human M1 receptor): < 100 nM

O=C([C@H]1C[C@H](Nc2cccc3ncccc23)C1)N1CC2CCC(C1)N2c1ccncc1 [Example 196, N-[(1r,3r)-3-[8-(pyridin-4-yl)-3,8-diazabicyclo[3.2.1]octane-3-carbonyl]cyclobutyl]quinolin-5-amine]
IC50 (human M1 receptor; [2]): 1000 to 10000 nM

Cc1cc(F)cnc1N1CCN(C(=O)CCCc2cccc3ncccc23)[C@H](C)C1 [Example 66, (R)-1-(4-(5-fluoro-3-methylpyridin-2-yl)-2-methylpiperazin-1-yl)-4-(quinolin-5-yl)butan-1-one]
IC50 (M2; [1]): 100 to 1000 nM
IC50 (M3): 100 to 1000 nM

Cc1cc(F)cnc1N1CCN(C(=O)CCCc2cccc3nc(N)sc23)[C@@H](C)C1 [Example 20, 4-(2-amino-1,3-benzothiazol-7-yl)-1-[(2S)-4-(5-fluoro-3-methylpyridin-2-yl)-2-methylpiperazin-1-yl]butan-1-one]
IC50 (M2; [1]): 1000 to 10000 nM
IC50 (M3): 1000 to 10000 nM

C[C@@H]1CN(c2ncc(F)cc2Cl)CCN1C(=O)CCCc1cccc2ncccc12 [Example 80, (R)-1-(4-(3-chloro-5-fluoropyridin-2-yl)-2-methylpiperazin-1-yl)-4-(quinolin-5-yl)butan-1-one]
IC50 (M2; [1]): 1000 to 10000 nM
IC50 (M3): 1000 to 10000 nM

Cc1cc(F)cnc1N1CCN(C(=O)CCCc2cccc3ncccc23)C(C)C1 (centres unmarked) [Example 59, 1-(4-(5-fluoro-3-methylpyridin-2-yl)-2-methylpiperazin-1-yl)-4-(quinolin-5-yl)butan-1-one]
IC50 (M2; [1]): < 100 nM
IC50 (M3): 100 to 1000 nM

CC1CN(C(=O)CCS(=O)(=O)c2cccc3ncsc23)CC(C)N1c1ccc(C#N)cn1 (centres unmarked) [Example 128, 6-{4-[3-(1,3-benzothiazole-7-sulfonyl)propanoyl]-2,6-dimethylpiperazin-1-yl}pyridine-3-carbonitrile]
IC50 (M2; [1]): 1000 to 10000 nM
IC50 (M3): 1000 to 10000 nM

Cc1cc(F)cnc1N1CCN(C(=O)CCCc2cccc3ncccc23)[C@@H](C)C1 [Example 6, 1-[(2S)-4-(5-fluoro-3-methylpyridin-2-yl)-2-methylpiperazin-1-yl]-4-(quinolin-5-yl)butan-1-one]
IC50 (M2; [1]): 1000 to 10000 nM
IC50 (M3): 1000 to 10000 nM

O=C(CCCc1cccc2ncccc12)N1CCN(c2ccc(F)cn2)CC1 [Example 51, 1-(4-(5-fluoropyridin-2-yl)piperazin-1-yl)-4-(quinolin-5-yl)butan-1-one]
IC50 (M2; [1]): 1000 to 10000 nM
IC50 (M3): > 10000 nM
